Experimental data: the supplement of paper PMC10307832

How the values were obtained:
Assay in all cases: relative viability (nuclei count vs DMSO), 5 days (fraction); higher = more cells survive
BEN = tested on: BEN
In short: (§1)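 Relative viability is defined as nuclei in treated wells over nuclei in vehicle wells. Duplicate plates were run and medians reported. Lung cancer cell lines in 1536-well plates were dosed by pin tool one day after seeding, with one drug or with a fixed anchor-drug dose plus five library-drug doses (not always all listed) in √10 steps, and nuclei were counted after 5 days.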

EKVX = tested on: EKVX
In short: as §1

HARA = tested on: HARA
In short: as §1

HCC-366 = tested on: HCC-366
In short: as §1

HCC-827 = tested on: HCC-827
In short: as §1

LC-2-ad = tested on: LC-2-ad
In short: as §1

LOU-NH91 = tested on: LOU-NH91
In short: as §1

NCI-H1355 = tested on: NCI-H1355
In short: as §1

NCI-H1437 = tested on: NCI-H1437
In short: as §1

NCI-H1734 = tested on: NCI-H1734
In short: as §1

NCI-H1792 = tested on: NCI-H1792
In short: as §1

NCI-H2009 = tested on: NCI-H2009
In short: as §1

NCI-H2087 = tested on: NCI-H2087
In short: as §1

NCI-H2170 = tested on: NCI-H2170
In short: as §1

NCI-H2228 = tested on: NCI-H2228
In short: as §1

NCI-H2405 = tested on: NCI-H2405
In short: as §1

NCI-H596 = tested on: NCI-H596
In short: as §1

NCI-H647 = tested on: NCI-H647
In short: as §1

NCI-H661 = tested on: NCI-H661
In short: as §1

SK-LU-1 = tested on: SK-LU-1
In short: as §1

SK-MES-1 = tested on: SK-MES-1
In short: as §1

Oc1nc(-c2ccc(C(F)(F)F)cc2)nc2c1CSCC2 [XAV939] + C[C@@H](Oc1cc(-c2cnn(C3CCNCC3)c2)cnc1N)c1c(Cl)ccc(F)c1Cl [Crizotinib] (partner 1 µM)
relative viability (BEN; first compound 0.08 µM): 0.868 | relative viability (BEN; first compound 0.253 µM): 0.788 | relative viability (BEN; first compound 0.8 µM): 0.978 | relative viability (EKVX; first compound 0.08 µM): 1.09 | relative viability (EKVX; first compound 0.253 µM): 0.95 | relative viability (EKVX; first compound 0.8 µM): 0.975 | relative viability (EKVX; first compound 2.53 µM): 0.586 | relative viability (HARA; first compound 0.08 µM): 1.14 | relative viability (HARA; first compound 0.253 µM): 0.785 | relative viability (HARA; first compound 0.8 µM): 1.05 | relative viability (HARA; first compound 2.53 µM): 0.932 | relative viability (HCC-366; first compound 0.08 µM): 0.66 | relative viability (HCC-366; first compound 0.253 µM): 0.56 | relative viability (HCC-366; first compound 0.8 µM): 0.52 | relative viability (HCC-366; first compound 2.53 µM): 0.466 | relative viability (HCC-827; first compound 0.08 µM): 0.897 | relative viability (HCC-827; first compound 0.253 µM): 0.818 | relative viability (HCC-827; first compound 0.8 µM): 0.887 | relative viability (HCC-827; first compound 2.53 µM): 0.949 | relative viability (LC-2-ad; first compound 0.08 µM): 0.468 | relative viability (LC-2-ad; first compound 0.253 µM): 0.382 | relative viability (LC-2-ad; first compound 0.8 µM): 0.435 | relative viability (LC-2-ad; first compound 2.53 µM): 0.489 | relative viability (LOU-NH91; first compound 0.08 µM): 0.719 | relative viability (LOU-NH91; first compound 0.253 µM): 0.708 | relative viability (LOU-NH91; first compound 0.8 µM): 0.734 | relative viability (LOU-NH91; first compound 2.53 µM): 0.699 | relative viability (NCI-H1355; first compound 0.08 µM): 1.05 | relative viability (NCI-H1355; first compound 0.253 µM): 0.9 | relative viability (NCI-H1355; first compound 0.8 µM): 0.828 | relative viability (NCI-H1355; first compound 2.53 µM): 0.725 | relative viability (NCI-H1437; first compound 0.08 µM): 1.03 | relative viability (NCI-H1437; first compound 0.253 µM): 0.915 | relative viability (NCI-H1437; first compound 0.8 µM): 0.947 | relative viability (NCI-H1437; first compound 2.53 µM): 0.788 | relative viability (NCI-H1734; first compound 0.08 µM): 0.725 | relative viability (NCI-H1734; first compound 0.253 µM): 0.637 | relative viability (NCI-H1734; first compound 0.8 µM): 0.662 | relative viability (NCI-H1734; first compound 2.53 µM): 0.619 | relative viability (NCI-H1792; first compound 0.08 µM): 0.994 | relative viability (NCI-H1792; first compound 0.253 µM): 0.896 | relative viability (NCI-H1792; first compound 0.8 µM): 0.977 | relative viability (NCI-H1792; first compound 2.53 µM): 0.902 | relative viability (NCI-H2009; first compound 0.08 µM): 1.12 | relative viability (NCI-H2009; first compound 0.253 µM): 1.04 | relative viability (NCI-H2009; first compound 0.8 µM): 1.01 | relative viability (NCI-H2009; first compound 2.53 µM): 0.96 | relative viability (NCI-H2087; first compound 0.08 µM): 0.879 | relative viability (NCI-H2087; first compound 0.253 µM): 0.998 | relative viability (NCI-H2087; first compound 0.8 µM): 0.715 | relative viability (NCI-H2087; first compound 2.53 µM): 0.797 | relative viability (NCI-H2170; first compound 0.08 µM): 1.28 | relative viability (NCI-H2170; first compound 0.253 µM): 1.01 | relative viability (NCI-H2170; first compound 0.8 µM): 1.02 | relative viability (NCI-H2170; first compound 2.53 µM): 0.921 | relative viability (NCI-H2228; first compound 0.08 µM): 0.431 | relative viability (NCI-H2228; first compound 0.253 µM): 0.438 | relative viability (NCI-H2228; first compound 0.8 µM): 0.464 | relative viability (NCI-H2228; first compound 2.53 µM): 0.398 | relative viability (NCI-H2405; first compound 0.08 µM): 0.906 | relative viability (NCI-H2405; first compound 0.253 µM): 0.816 | relative viability (NCI-H2405; first compound 0.8 µM): 0.808 | relative viability (NCI-H2405; first compound 2.53 µM): 0.775 | relative viability (NCI-H596; first compound 0.08 µM): 1.12 | relative viability (NCI-H596; first compound 0.253 µM): 0.955 | relative viability (NCI-H596; first compound 0.8 µM): 1.06 | relative viability (NCI-H596; first compound 2.53 µM): 0.93 | relative viability (NCI-H647; first compound 0.08 µM): 1.07 | relative viability (NCI-H647; first compound 0.253 µM): 1 | relative viability (NCI-H647; first compound 0.8 µM): 1.11 | relative viability (NCI-H647; first compound 2.53 µM): 0.9 | relative viability (NCI-H661; first compound 0.08 µM): 0.922 | relative viability (NCI-H661; first compound 0.253 µM): 0.961 | relative viability (NCI-H661; first compound 0.8 µM): 0.953 | relative viability (NCI-H661; first compound 2.53 µM): 0.969 | relative viability (SK-LU-1; first compound 0.08 µM): 0.929 | relative viability (SK-LU-1; first compound 0.253 µM): 0.809 | relative viability (SK-LU-1; first compound 0.8 µM): 0.936 | relative viability (SK-LU-1; first compound 2.53 µM): 0.823 | relative viability (SK-MES-1; first compound 0.08 µM): 1.02 | relative viability (SK-MES-1; first compound 0.253 µM): 0.934 | relative viability (SK-MES-1; first compound 0.8 µM): 0.882 | relative viability (SK-MES-1; first compound 2.53 µM): 0.842
